Values of other authors, collected in patent US20230089090A1, “Composition for Treating Viral Infections” (priority 2020, published 2023).

Key:
[1] = both flavonols administered simultaneously
[2] = significant amount excreted over a 24-h period
[3] = tested on: androgen receptor (AR)-positive C4-2 cells; details: single compounds, read-out: half minimal inhibitory concentration (IC50)
[4] = tested on: HIV-1 infected lymphocytes; details: similar to DRB and cell control
[5] = in vivo, 10 mg/kg
[6] = tested on: dengue virus
[7] = target: human furin (Homo sapiens, UniProt P09958)
human furin, sequence (P09958 108-794): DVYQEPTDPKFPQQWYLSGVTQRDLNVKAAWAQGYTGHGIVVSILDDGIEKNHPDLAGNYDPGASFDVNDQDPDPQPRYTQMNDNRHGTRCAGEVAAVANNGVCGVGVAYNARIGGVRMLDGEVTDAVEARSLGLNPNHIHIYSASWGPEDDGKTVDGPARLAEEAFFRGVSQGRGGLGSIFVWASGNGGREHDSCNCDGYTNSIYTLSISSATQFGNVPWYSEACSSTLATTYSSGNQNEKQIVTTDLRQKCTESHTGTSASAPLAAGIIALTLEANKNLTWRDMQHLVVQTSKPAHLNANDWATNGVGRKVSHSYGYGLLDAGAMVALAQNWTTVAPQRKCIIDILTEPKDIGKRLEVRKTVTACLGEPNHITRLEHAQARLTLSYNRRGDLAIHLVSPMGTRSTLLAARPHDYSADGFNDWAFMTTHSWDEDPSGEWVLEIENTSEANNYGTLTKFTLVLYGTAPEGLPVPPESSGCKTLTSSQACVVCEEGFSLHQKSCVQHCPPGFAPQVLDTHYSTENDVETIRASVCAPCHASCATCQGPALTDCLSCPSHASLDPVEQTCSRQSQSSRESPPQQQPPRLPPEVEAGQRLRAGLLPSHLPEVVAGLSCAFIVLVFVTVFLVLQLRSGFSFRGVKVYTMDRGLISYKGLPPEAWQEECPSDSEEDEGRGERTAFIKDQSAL

## O=c1c(O)c(-c2ccc(O)cc2)oc2cc(O)cc(O)c12 [kaempferol, 3,4′,5,7-tetrahydroxyflavone]
[1]
  effect on efflux of quercetin: blocked the efflux of quercetin

## O=c1c(O)c(-c2ccc(O)c(O)c2)oc2cc(O)cc(O)c12 [quercetin, 2-(3,4-dihydroxyphenyl)-3,5,7-trihydroxy-4H-chromen-4-one]
[2]
  clearance and half-life in the blood: rapid clearance and a short half-life

## O=c1cc(-c2ccc(O)c(O)c2)oc2cc(O)cc(O)c12 [luteolin, 2-(3,4-dihydroxyphenyl)-5,7-dihydroxy-4-chromenone]
[3]
  IC50: 114 µM
[4]
  cell aggregation/syncytia: inhibition in cell aggregation/syncytia
[5]
  adverse effects: Major adverse effects had not been observed
[6]; through inhibition of the proprotein convertase furin
  dengue virus replication: restricts dengue virus replication
[6]; virus particles from luteolin-treated cells
  prM cleavage in virus particles: not cleaved efficiently
[7]
  manner of inhibition of the enzyme activity: uncompetitive
[7]; uncompetitive inhibition
  Ki: 58.6 µM
